Data set [1] deals with BAC-induced dry eye rabbit model. In words: Tear break-up time (TBUT) in BAC-induced dry eye rabbits. To be noted: after 4 weeks of 0.1% BAC installation. The class given is in vivo, New Zealand White rabbits. The procedure: (§1) A 4-week 0.1% BAC treatment could induce stable dry eye condition in rabbits and no severe corneal damage was observed. Thus, a 4-week 0.1% BAC installation followed by a 3-week topical treatment of Restasis® or liposomes was used in the present invention. Corneal fluorescein staining, tear breakup time and tear production were measured before and after BAC installation and weekly throughout the 3-week treatment period.
(§2) Ten male New Zealand White rabbits, weighing between 3 to 3.5 kg each, were procured from Charles River Laboratories. They were housed within the Centralized Animal Facility at the University of Waterloo, where they were subjected to a 12-hour cycle of alternating light and darkness. The temperature was maintained at 23° C.±2° C., with a relative humidity of 60%±10%. The entire experimental procedure was conducted by ethical guidelines and received approval from the Animal Care Committee under Application No. 44737. Upon a 2-week acclimation period, eight rabbits were chosen at random to induce stable dry eye disease. […]
Rabbits were sedated by the aforementioned procedure. TBUT was evaluated utilizing a handheld EasyTear® VIEW+ Tearscope with a grid pattern, in conjunction with the S4 OPTIK HR Elite Mega Digital Vision system. […] This measurement was repeated thrice to ensure accuracy, and an average value was calculated for analysis.

The test system is the same in data set [2]. Put plainly: Tear production (Schirmer tear strips) in BAC-induced dry eye rabbits. The class given is in vivo, New Zealand White rabbits. To be noted: after 4-week 0.1% BAC installation. On the procedure: as §1, §2
The aqueous tear production was measured with Schirmer Tear Strips (SPORTS WORLD VISION). The strips were placed inside the margin of the nictitating membrane of the lower eyelid of the rabbit for 5 min and the wetting length of the strip was measured as an indication of tear production.

The subject of data set [3] is unidentified trypsin-sensitive surface protein(s) of human corneal epithelial cells (HCECs) (Homo sapiens). Put plainly: flow.
Data set [4] concerns human corneal epithelial cells (HCECs). Put plainly: Flow cytometry binding of FAM-labelled aptamers to HCECs. To be noted: FAM-labelled free aptamer, room temperature, read-out: dissociation constant (Kd) of aptamer in HCECs. On the procedure: Due to the large size of cornea tissue, it is difficult to do quantitative binding assays. Thus, the binding of FAM-labelled aptamer to human corneal epithelial cells (HCECs) was tested using flow cytometry and fluorescence microscopy. BSA and salmon DNA were added to the blocking buffer to reduce non-specific binding before the incubation with FAM-labelled aptamers.
(§3) The cells were then incubated with blocking buffer (1% BSA, 0.1 mg mL^−1 Salmon sperm DNA in PBS) for 30 min at room temperature. After washing with PBS under centrifugation, 3×10^5 cells were incubated with pre-heated Cornea-S1 or Cornea-S2 aptamers or aptamer liposomes at various concentrations in PBS for 30 min at room temperature. After incubation, the cells were rinsed three times with 500 μL of PBS and then resuspended in 200 μL of PBS. The fluorescence signal was analyzed with a NovoCyte Flow Cytometer (Agilent Technologies). The equilibrium dissociation constants (Kd) value of each aptamer or aptamer liposome was obtained by GraphPad Prism 9 according to […]
(Flow cytometry measures light scatter and fluorescence of single cells or particles in a stream.)

Data set [5] deals with cell surface protein of HCECs. In words: Flow cytometry of aptamer binding to intact vs trypsin-treated HCECs. Also on record: species or system human. The procedure:
To understand the type of target, the HCECs were treated with trypsin, which degraded surface proteins.
as §3

Data set [6] relates to human corneal epithelial cells (HCECs). Put plainly: Fluorescence microscopy of FAM-labelled aptamer binding in HCECs. To be noted: FAM-labelled DNA, 30 min incubation. On the procedure: (§4) HCECs were seeded on glass bottom culture dishes at 10,000 cells/compartment for 24 h. To test the binding of the aptamer to cells, HCECs were incubated with FAM-labelled T30 DNA sequence (negative control), Cornea-S1, or Cornea-S2 aptamers for 30 min. […] HCECs cultured in the isosmotic medium were used as a control. After incubation, the cells were washed 2 times with ice-cold PBS and were then stained with 1 μg mL^−1 Hoechst 33342 in PBS for nucleus staining for 1 min at RT. Fluorescence images were captured at the mid-plane of cells (magnification: 400×) by Nikon Eclipse Ti Inverted Research Microscope. The excitation wavelengths of Hoechst, Rh-PE, and FAM were 361 nm, 560 nm, and 498 nm respectively.
Furthermore, the binding of FAM-labelled aptamers in HCECs was visualized under a fluorescence microscope.

The subject of data set [7] is HCECs in hyperosmolarity medium. In words: Cellular uptake and retention of CsA liposomes in dry eye HCECs model. The class given is cell-based, human. To be noted: DED model. On the procedure: To construct a dry eye disease (DED) cell model, HPV-immortalized human corneal epithelial cells (HCECs) (passages 6-10) were maintained in DMEM/F12 medium supplemented with 1% FBS and 1% penicillin/streptomycin at 37° C., 95% humidity, and 5% CO2. The cell medium was changed every 2 days. To establish an in vitro DED model, sodium chloride was added to the culture medium to increase the osmolarity of the medium by 200 mOsM.
as §4, with “The excitation wavelengths of Hoechst, Rh-PE, and FAM were 361 nm, 560 nm, and 498 nm respectively.” left out
The CsA-loaded liposomes were tested for cellular uptake and retention in a dry eye HCECs model induced by a high osmolarity medium. […] Additionally, liposome retention in cells was assessed by pretreating the cells with liposomes for 4 hours, followed by a 20-hour incubation period in liposome-free medium.

In data set [8] the test system is human corneal epithelial cells (HCECs). Put plainly: Flow cytometry binding affinity of aptamer CsA liposomes in HCECs. To be noted: liposome vs free aptamer. On the procedure:
The binding affinity of each aptamer liposome in HCECs was measured by flow cytometry. The cells were incubated with liposomes at room temperature, instead of in a 37° C. incubator, to reduce the internalization of liposomes by endocytosis. […] This apparent Kd is much lower than that observed in the free aptamers, for example, Cornea-S1 being 300-fold lower, and this was attributed to the stronger polyvalent binding increasing the avidity of the aptamer-functionalized liposomes.
as §3

The subject of data set [9] is BAC-induced dry eye rabbit model. Put plainly: Corneal fluorescein staining in BAC-induced dry eye rabbits. The class given is in vivo, New Zealand White rabbits. To be noted: 4-week 0.1% BAC, then topical treatment twice daily up to 3 weeks. On the procedure: as §1
as §2, with “disease. This was achieved through the topical application of 0.1% benzalkonium chloride (BAC) at a dosage of 20 μL per installation. This protocol was repeated twice a day (at 10 a.m. and 5 p.m.) for the subsequent 4 weeks. The remaining two rabbits constituted the control group and received PBS through a similar administration schedule.” for “disease.”

[10] abbreviates: 3'-FAM, whole-cell apparent Kd, PBS, room temperature, 30 min, trypsin treatment lowers binding.

On to benzalkonium chloride [BAC], for which the “reduction in TBUT compared to baseline” value in data set [1] is given as 60-70%. The “decrease in tear production” value in data set [2] was 25-35%.
With “GACGACGGCAAGGGGAAAGTGGTCGTAATCACGACGGTCGTC [FAM-Cornea-S1]”, the Kd in data set [3] (setting [10]) was found to be 362 nM.
In [3] (3'-cholesterol, inserted in CsA liposome (about 690 strands per liposome), polyvalent liposome on whole cells, p92 gives 15.1 nM), “GACGACTTATGCTTGGGACCTGATCCGGACTACGGTGTCGTCTTTTT [Cornea-S2-chol liposome]” gave a Kd of 15 nM.
On to “Cornea-S2: DNA aptamer from cornea tissue-SELEX, family 2: GACGACTTATGCTTGGGACCTGATCCGGACTACGGTGTCGTC (DNA, backbone not given here; further chemistry not fully specified)”, for which the Kd in data set [4] was 174 nM. Also, the “FAM signals in trypsin-treated cells compared with intact cells” value in data set [5] was “significantly lower FAM signals”. In addition, the “FAM signals in HCECs under fluorescence microscope” value in data set [6] is “intensive FAM signals”. In [7], the “extended retention of liposomes” value is recorded as “up to 24 hours”.
As for “Cornea-S1: DNA aptamer from cornea tissue-SELEX, family 1: GACGACGGCAAGGGGAAAGTGGTCGTAATCACGACGGTCGTC (DNA, backbone not given here; further chemistry not fully specified)”, in [4], the Kd amounted to 362 nM. In addition, the “apparent Kd of liposome lower than that of the free aptamer” value in data set [8] came out at 300 fold. Besides, the “FAM signals in trypsin-treated cells compared with intact cells” value in [5] is “significantly lower FAM signals”. For the same substance, the “FAM signals in HCECs under fluorescence microscope” value in data set [6] (listed as Conrea-S1) was “intensive FAM signals”; in data set [6] (listed as Corena-S1), “observably higher than Conrea-S2 and S2.2 aptamer”. Also, the “extended retention of liposomes” value in [7] is on record as “up to 24 hours”. Besides, the “corneal fluorescein staining / corneal integrity” value in data set [9] is “markedly diminished to residual staining or isolated dots”.
Consider “GACGACGGCAAGGGGAAAGTGGTCGTAATCACGACGGTCGTCTTTTT [Cornea-S1-chol liposome]”, for which the Kd in data set [3] (3'-cholesterol, inserted in CsA liposome (about 690 strands per liposome), polyvalent liposome on whole cells, PBS, room temperature) stood at 1.2 nM.
As to “GACGACTTATGCTTGGGACCTGATCCGGACTACGGTGTCGTC [FAM-Cornea-S2]”, in data set [3] (setting [10]), the Kd worked out at 174 nM.
